Results published in patent US11518735B2 (AE KYUNG INDUSTRIAL CO., LTD, priority 2017, dated 2022).
Entries after “also recorded” stand apart in the source; their conditions may differ.

Assay: Thermal stability by HPLC analysis, samples heated in oven at 90° C.
Assay type: physicochemical
Conditions: for HPLC peak area: 90° C. oven; for change in peak area (degree of decomposition): after 24 hours versus initial peak area
Experimental: The thermal stability tests were conducted by heating the compound samples of Formulas 3 and 7 in an oven maintained at 90° C. and measuring the degree of decomposition of each sample.

Row | HPLC peak area (0 hour) | HPLC peak area (3 hours) | HPLC peak area (6 hours) | HPLC peak area (24 hours) | HPLC peak area (1 hour) | Compound | change in peak area (degree of decomposition) (90° C.) | high-temperature stability compared with Formula 7 (HPLC, 90° C.)
1 | 21694395 | 10982003 | 11400622 | 7124834 | – | CCCCCCCC/C=C/CCCCCCCCNC(=O)CC(/C=C/CCCCCCCCCCCCCCCC)C(=O)O (stereo not shown) [Formula 7, reference compound] | nearly one third of the initial peak area | –
2 | 22760548 | – | – | 22896857 | 22871539 | CCCCCCCCCC/C=C/C(CC(=O)NCCCCCCCCCCCCCCCCCC)C(=O)O (stereo not shown) [Formula 3] | little change in the peak area ratio | better high-temperature stability; also recorded: improved stability
